Assay results: the supplement of paper PMC11061612

Key:
Experiment in all cases: combination Emax (second highest fraction inhibited in the dose matrix, 72 h); higher = more inhibition; extreme values may be limits of the assay
[1] = system: COR-L23 (Non-Small Cell Lung Carcinoma)
In short: (§1)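 Bliss excess equals the observed combination effect minus the expected value EA + EB − EA·EB, where EA and EB are the effects of each agent alone. Combination Emax is the second-highest inhibition within the matrix. Inhibition was scaled from CellTiter-Glo 2.0 luminescence, with 0 set by vehicle wells and 1 by blank wells, after 72 hours of two-drug dosing of cells plated in 1536-well plates.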

[2] = system: COR-L95 (Small Cell Lung Carcinoma)
In short: as §1

[3] = system: CTV-1 (T-Lymphoblastic Leukemia)
In short: as §1

[4] = system: DMS-273 (Small Cell Lung Carcinoma)
In short: as §1

[5] = system: DOV13 (Ovarian Carcinoma)
In short: as §1

[6] = system: HPAC (Pancreatic Carcinoma)
In short: as §1

[7] = system: HT-29 (Colorectal Carcinoma)
In short: as §1

[8] = system: KM-H2 (Hodgkin's Lymphoma)
In short: as §1

[9] = system: MDA-MB-157 (Breast Carcinoma)
In short: as §1

[10] = system: MDA-MB-231 (Breast Carcinoma)
In short: as §1

[11] = system: NCI-H1694 (Small Cell Lung Carcinoma)
In short: as §1

[12] = system: NCI-H1781 (Lung Adenocarcinoma)
In short: as §1

NCI-H2595 (Mesothelioma) = system: NCI-H2595 (Mesothelioma)
In short: as §1

[13] = system: OCI-AML2 (Acute Myeloid Leukemia)
In short: as §1

SN12C (Kidney Carcinoma) = system: SN12C (Kidney Carcinoma)
In short: as §1

[14] = system: SNU-C5 (Colorectal Carcinoma)
In short: as §1

[15] = system: SW780 (Bladder Carcinoma)
In short: as §1

[16] = system: TE-5 (Esophageal Squamous Cell Carcinoma)
In short: as §1

[17] = system: TGBC24TKB (Biliary Tract Carcinoma)
In short: as §1

[18] = system: U-266 (Plasma Cell Myeloma)
In short: as §1

Structure (SMILES) | combination Emax [1] | combination Emax [2] | combination Emax [3] | combination Emax [4] | combination Emax [5] | combination Emax [6] | combination Emax [7] | combination Emax [8] | combination Emax [9] | combination Emax [10] | combination Emax [11] | combination Emax [12] | combination Emax (NCI-H2595 (Mesothelioma)) | combination Emax [13] | combination Emax (SN12C (Kidney Carcinoma)) | combination Emax [14] | combination Emax [15] | combination Emax [16] | combination Emax [17] | combination Emax [18]
CN(CCO)CC[C@H](CSc1ccccc1)Nc1ccc(S(=O)(=O)NC(=O)c2ccc(N3CCC([C@@H](O)c4ccccc4-c4ccc(Cl)cc4)CC3)cc2)cc1S(=O)(=O)C(F)(F)F [AZD4320] + C[C@@H]1COCCN1C2=NC(=NC(=C2)C3(CC3)[S@](=N)(=O)C)C4=C5C=CNC5=NC=C4 [AZD6738] (first compound max 1 µM, 7x7, partner max 10 µM) | 0.621 | 1 | 0.822 | 0.813 | 0.974 | 0.897 | 0.936 | 0.909 | 0.94 | 0.849 | 0.974 | 0.519 | 0.214 | 1 | 0.328 | 0.854 | 0.506 | 0.77 | 0.891 | 0.834
CN(CCO)CC[C@H](CSc1ccccc1)Nc1ccc(S(=O)(=O)NC(=O)c2ccc(N3CCC([C@@H](O)c4ccccc4-c4ccc(Cl)cc4)CC3)cc2)cc1S(=O)(=O)C(F)(F)F [AZD4320] + CN(C)CCCOc1ccc(-c2ccc3ncc4c(c3c2)n(C2CCOCC2)c(=O)n4C)cn1 [AZD0156] (first compound max 1 µM, 7x7, partner max 1 µM) | 0.0875 | 1 | 0.211 | 0.247 | 0.731 | 0.371 | 0.169 | 0.155 | 0.0946 | 0.655 | 0.718 | 0.183 | 0.12 | 1 | 0.169 | 0.225 | 0.521 | 0.43 | 0.598 | 0.506
COc1cccc(OCCCN)c1-c1cc(Nc2cnc(C#N)cn2)n[nH]1 [Prexasertib] + Cc1cc2ncnn2cc1Nc1ncc2c(n1)n(C1CCOCC1)c(=O)n2C [AZD7648] (first compound max 1 µM, 7x7, partner max 10 µM) | 0.711 | 0.644 | 0.966 | 0.909 | 0.914 | 0.816 | 0.861 | 0.924 | 0.961 | 0.696 | 0.808 | 0.468 | 0.159 | 1 | 0.387 | 0.886 | 0.26 | 0.526 | 0.827 | 0.713
COc1nnc2ccc(N3CCC(c4ccc(OCCN5CCN(C)C(=O)[C@H]5C)cc4)CC3)nn12 [AZD5153] + CCN(CCO)CCCOc1ccc2c(Nc3cc(CC(=O)Nc4cccc(F)c4)[nH]n3)ncnc2c1 [AZD2811] (first compound max 1 µM, 7x7, partner max 1 µM) | 0.354 | 0.308 | 0.974 | 0.901 | 0.676 | 0.649 | 0.72 | 0.351 | 0.54 | 0.65 | 0.364 | 0.517 | 0.465 | 1 | 0.394 | 0.517 | 0.339 | 0.434 | 0.765 | 0.279
